Results published in patent US9693556B2, “Herbicidal pyridazinone derivatives” (SYNGENTA LIMITED, priority 2011, dated 2017).

Experiments:
Type in all cases: in vivo
[1] = system: Echinochloa crus-galli (ECHCG); assay: Post-emergence herbicidal glasshouse test on Echinochloa crus-galli; settings: post-emergence, 1000 g/h, evaluated after 13 days
Outline: (§1)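 Read-out: percentage herbicidal damage 13 days after spraying, given on a five-point scale (5=80-100%, 4=60-79%, 3=40-59%, 2=20-39%, 1=0-19%). Pots of standard soil; application at 1000 g/h, one day post-sowing for pre-emergence, eight days for post-emergence.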

[2] = system: Alopecurus myosuroides (ALOMY); assay: Post-emergence herbicidal glasshouse test on Alopecurus myosuroides; settings: post-emergence, 1000 g/h, evaluated after 13 days
Outline: as §1

[3] = system: Ipomoea hederacea (IPOHE); assay: Post-emergence herbicidal glasshouse test on Ipomoea hederacea; settings: post-emergence, 1000 g/h, evaluated after 13 days
Outline: as §1

[4] = system: Setaria faberi (SETFA); assay: Pre-emergence herbicidal glasshouse test on Setaria faberi; settings: pre-emergence, 1000 g/h, evaluated after 13 days
Outline: as §1

[5] = system: Solanum nigrum (SOLNI); assay: Post-emergence herbicidal glasshouse test on Solanum nigrum; settings: post-emergence, 1000 g/h, evaluated after 13 days
Outline: as §1

[6] = system: Ipomoea hederacea (IPOHE); assay: Pre-emergence herbicidal glasshouse test on Ipomoea hederacea; settings: pre-emergence, 1000 g/h, evaluated after 13 days
Outline: as §1

[7] = system: Amaranthus retoflexus (AMARE); assay: Post-emergence herbicidal glasshouse test on Amaranthus retoflexus; settings: post-emergence, 1000 g/h, evaluated after 13 days
Outline: as §1

[8] = system: Amaranthus retoflexus (AMARE); assay: Pre-emergence herbicidal glasshouse test on Amaranthus retoflexus; settings: pre-emergence, 1000 g/h, evaluated after 13 days
Outline: as §1

[9] = system: Alopecurus myosuroides (ALOMY); assay: Pre-emergence herbicidal glasshouse test on Alopecurus myosuroides; settings: pre-emergence, 1000 g/h, evaluated after 13 days
Outline: as §1

[10] = system: Setaria faberi (SETFA); assay: Post-emergence herbicidal glasshouse test on Setaria faberi; settings: post-emergence, 1000 g/h, evaluated after 13 days
Outline: as §1

[11] = system: Echinochloa crus-galli (ECHCG); assay: Pre-emergence herbicidal glasshouse test on Echinochloa crus-galli; settings: pre-emergence, 1000 g/h, evaluated after 13 days
Outline: as §1

[12] = system: Solanum nigrum (SOLNI); assay: Pre-emergence herbicidal glasshouse test on Solanum nigrum; settings: pre-emergence, 1000 g/h, evaluated after 13 days
Outline: as §1

Compound | POST Application ECHCG herbicidal damage (five point scale) [1] | POST Application ALOMY herbicidal damage (five point scale) [2] | POST Application IPOHE herbicidal damage (five point scale) [3] | PRE Application SETFA herbicidal damage (five point scale) [4] | POST Application SOLNI herbicidal damage (five point scale) [5] | PRE Application IPOHE herbicidal damage (five point scale) [6] | POST Application AMARE herbicidal damage (five point scale) [7] | PRE Application AMARE herbicidal damage (five point scale) [8] | PRE Application ALOMY herbicidal damage (five point scale) [9] | POST Application SETFA herbicidal damage (five point scale) [10] | PRE Application ECHCG herbicidal damage (five point scale) [11] | PRE Application SOLNI herbicidal damage (five point scale) [12] | also measured
CCOc1cccc(-c2c(C(F)(F)F)ccn(-c3cnn(C)c(=O)c3O)c2=O)c1 [Compound 7.016] | 2 (2=20-39% damage) | 2 (2=20-39% damage) | 1 (1=0-19% damage) | 2 (2=20-39% damage) | 5 (5=80-100% damage) | 1 (1=0-19% damage) | 5 (5=80-100% damage) | 5 (5=80-100% damage) | 2 (2=20-39% damage) | 2 (2=20-39% damage) | 2 (2=20-39% damage) | 5 (5=80-100% damage) | 
Cn1ncc(-c2ccc(C(F)(F)F)cc2Cl)c(O)c1=O [Compound 1.076] | 2 (2=20-39% damage) | 2 (2=20-39% damage) | 4 (4=60-79% damage) | 1 (1=0-19% damage) | 4 (4=60-79% damage) | 1 (1=0-19% damage) | 5 (5=80-100% damage) | 5 (5=80-100% damage) | 1 (1=0-19% damage) | 1 (1=0-19% damage) | 1 (1=0-19% damage) | 2 (2=20-39% damage) | 
CCn1ncc(-c2c(Cl)cccc2Cl)c(O)c1=O [Compound 1.011] | 2 (2=20-39% damage) | 2 (2=20-39% damage) | 2 (2=20-39% damage) | 1 (1=0-19% damage) | 4 (4=60-79% damage) | 1 (1=0-19% damage) | 4 (4=60-79% damage) | 1 (1=0-19% damage) | 1 (1=0-19% damage) | 2 (2=20-39% damage) | 1 (1=0-19% damage) | 1 (1=0-19% damage) | 
CC[S+]([O-])c1ccccc1-c1cnn(C)c(=O)c1O (stereo not drawn) [Compound 1.041] | 5 (5=80-100% damage) | 4 (4=60-79% damage) | 5 (5=80-100% damage) | 2 (2=20-39% damage) | 5 (5=80-100% damage) | 1 (1=0-19% damage) | 5 (5=80-100% damage) | 4 (4=60-79% damage) | 3 (3=40-59% damage) | 5 (5=80-100% damage) | 4 (4=60-79% damage) | 2 (2=20-39% damage) | 
COCn1ncc(-c2ccc(Cl)cc2S(C)(=O)=O)c(O)c1=O [Compound 2.005] | 5 (5=80-100% damage) | 5 (5=80-100% damage) | 5 (5=80-100% damage) | 5 (5=80-100% damage) | 5 (5=80-100% damage) | 5 (5=80-100% damage) | 5 (5=80-100% damage) | 5 (5=80-100% damage) | 5 (5=80-100% damage) | 5 (5=80-100% damage) | 5 (5=80-100% damage) | 5 (5=80-100% damage) | 
Cn1ncc(-c2cnc(C(F)(F)F)nc2N2CCOCC2)c(O)c1=O [Compound 8.001, 4-hydroxy-2-methyl-5-[4-morpholino-2-(trifluoromethyl)pyrimidin-5-yl]pyridazin-3-one] | 5 (5=80-100% damage) | 1 (1=0-19% damage) | 5 (5=80-100% damage) | 2 (2=20-39% damage) | 5 (5=80-100% damage) | 3 (3=40-59% damage) | 5 (5=80-100% damage) | 5 (5=80-100% damage) | 1 (1=0-19% damage) | 2 (2=20-39% damage) | 5 (5=80-100% damage) | 5 (5=80-100% damage) | 
Cc1c(-c2cnn(C)c(=O)c2O)ccc2c1C(=O)N(C)S2(=O)=O [Compound 1.035] | 5 (5=80-100% damage) | 2 (2=20-39% damage) | 5 (5=80-100% damage) | 1 (1=0-19% damage) | 5 (5=80-100% damage) | 4 (4=60-79% damage) | 5 (5=80-100% damage) | 5 (5=80-100% damage) | 1 (1=0-19% damage) | 1 (1=0-19% damage) | 5 (5=80-100% damage) | 3 (3=40-59% damage) | 
Cc1ccc(-n2cccc(-c3cnn(C)c(=O)c3O)c2=O)cc1 [Compound 9.017] | 5 (5=80-100% damage) | 2 (2=20-39% damage) | 2 (2=20-39% damage) | 1 (1=0-19% damage) | 4 (4=60-79% damage) | 2 (2=20-39% damage) | 3 (3=40-59% damage) | 1 (1=0-19% damage) | 2 (2=20-39% damage) | 2 (2=20-39% damage) | 1 (1=0-19% damage) | 1 (1=0-19% damage) | 
CS(=O)(=O)c1ccc(-c2cnn(C3CC3)c(=O)c2O)c(Cl)c1C1=NOCC1 [Compound 1.158] |  |  |  |  |  |  |  |  |  |  |  |  | herbicidal damage, POST Application ECHCG ([1]; five point scale): 5 (5=80-100% damage); herbicidal damage, POST Application ALOMY ([2]; five point scale): 5 (5=80-100% damage); herbicidal damage, POST Application IPOHE ([3]; five point scale): 5 (5=80-100% damage); herbicidal damage, PRE Application SETFA ([4]; five point scale): 3 (3=40-59% damage); herbicidal damage, POST Application SOLNI ([5]; five point scale): 5 (5=80-100% damage); herbicidal damage, PRE Application IPOHE ([6]; five point scale): 3 (3=40-59% damage); herbicidal damage, POST Application AMARE ([7]; five point scale): 5 (5=80-100% damage); herbicidal damage, PRE Application AMARE ([8]; five point scale): 5 (5=80-100% damage); herbicidal damage, PRE Application ALOMY ([9]; five point scale): 3 (3=40-59% damage); herbicidal damage, POST Application SETFA ([10]; five point scale): 5 (5=80-100% damage); herbicidal damage, PRE Application ECHCG ([11]; five point scale): 5 (5=80-100% damage); herbicidal damage, PRE Application SOLNI ([12]; five point scale): 4 (4=60-79% damage)
CN(C)c1nc(C(F)(F)F)ccc1-c1cnn(C)c(=O)c1O [Compound 1.134] | 2 (2=20-39% damage) | 1 (1=0-19% damage) | 5 (5=80-100% damage) | 1 (1=0-19% damage) | 5 (5=80-100% damage) | 2 (2=20-39% damage) | 5 (5=80-100% damage) | 5 (5=80-100% damage) | 1 (1=0-19% damage) | 2 (2=20-39% damage) | 1 (1=0-19% damage) | 5 (5=80-100% damage) | 
